# Reference: article PMC10079954, “Rational design of phase separating peptides based on phase separating protein sequence of p53” (Scientific Reports, 2023)
# What was measured:
# [1] = Single-molecule fluorescence tracking (HILO) of labeled molecules in their droplets; assay type: physicochemical; details: Alexa488-labeled peptide 10–100 pM in 0.9 mM non-labeled peptide droplets; 25 mM HEPES, 0.5 mM EDTA, 45 mM NaCl, 150 mg/mL dextran, pH 7.0; linear fit of MSD (4D slope)
# Procedure: We quantitatively characterized the liquid droplet properties of the four designed peptides and compared them with those of p53. We measured the fusion of the designed peptide droplets in the solution used for p53 droplets (Supplementary Fig. S4). In the presence of 45 mM NaCl and 150 mg/mL dextran, the fusion of droplets for the four designed peptides was observed within 0.2 s, which was much faster than that for p53 (3.7 min)[8]. This gap in the fusion period implies different intrinsic dynamic properties. We measured the movement of Alexa488-labeled peptides within non-labeled peptide droplets using single-molecule fluorescence microscopy with a highly inclined and laminated optical sheet (HILO) illumination[37],[41] (Fig. 3A). […]
# Single-molecule measurements were performed following the method described in our previous studies[37],[41]. An inverted fluorescence microscope (IX-73; Olympus) with a total internal reflection fluorescence unit (IX3RFAEVAW; Olympus) was used[52],[53]. […] The fluorescence collected via the objective lens was detected using an EM-CCD camera (iXon Ultra 888, Andor). […] Images were recorded at intervals of 15–154 ms after reducing the number of observable molecules in the droplets by photobleaching within one minute. […]
# [2] = tested on: p53 dimer (L344A) mutant; assay: Recruitment (enrichment index) of p53 dimer into designed peptide droplets; set-up: species or system human; details: (GGGS)3-linker versus GSGS-linker droplets; no salt, pH 7.0
# Excerpt: We prepared p53 tetramer, dimer, and monomer mutants, as described previously[8],[37],[50]. For the p53 tetramer, a thermostable and cysteine-modified human p53 mutant (C124A, C135V, C141V, W146Y, C182S, V203A, R209P, C229Y, H233Y, Y234F, N235K, Y236F, T253V, N268D, C275A, C277A, and K292C) was used[50]. The dimer and monomer mutants of p53 corresponded to L344A and L344P of the tetramer sequence, respectively[8],[37]. These p53 mutants were expressed with a glutathione S-transferase (GST) tag in E. coli and purified after cleavage of the GST tag, as described previously[50],[51]. The oligomeric state of p53 mutants was confirmed using a gel filtration column (Superdex 200; GE Healthcare). p53 mutants were labeled with Atto488 (ATTO-TEC) or Alexa488 (Thermo Fisher) using maleimide chemistry and then purified using a heparin column (GE Healthcare). We prepared Alexa488-labeled FUS-MBP as described previously[37],[39].
# Recruitment evaluations were performed following the method described in our previous studies[37],[41]. […] Using the ImageJ software, we calculated the EI values of the individual droplets as follows:2 EI=Idroplet/Isolution, where Idroplet and Isolution represent the average fluorescence intensities of the individual droplets and solutions near the droplets with background substitution, respectively.
sequence,measurement,setting,value
RRRVVQRRRRGGGSGGGSGGGSDDDASQEDDD [DPp53N-(GGGS)3-DPp53C1],Average diffusion coefficient (D) in own droplets,[1],2.03 ± 0.06 μm^2/s
same,Increase of average EI of p53 dimer mutant compared to the GSGS-linker peptide,[2],1.5 fold
